Data as given in patent publication US10512667B2, “Compositions and methods for treating conditions related to adrenocortical activity and/or excessive steroid production” (The Regents of the University of Michigan, priority 2017, dated 2019).
“Also recorded” adds a separate entry of the source.

Key:
[1] = tested on: adrenal cortex; settings: WHHL rabbits; cited from earlier work
[2] = tested on: H295R cells; test: Visualization of cholesterol levels by filipin III binding; format: cell-based
Protocol: The cells were seeded in 96-well ibiTreat μ-Plates and allowed to adhere for 48 h prior to the start of each experiment. Cholesterol was detected in fixed cells by incubating with 100 μg/ml filipin III at 37 C for 2 h. […] Images were captured using either a 4× or a 60× objective. Cholesterol esterification was visualized by culturing the cells with 1 μM NBD-cholesterol for 2 h following incubation with the indicated compounds. […] Images were captured using either a 20× or a 60× objective.
The medium was removed and immediately replaced with 100 μl of 4% paraformaldehyde and the cells were fixed at room temperature for 20 min. The cells were washed twice with 200 μl PBS. […] The fixed cells were incubated with filipin III at 37 C in the dark for 2 h.

[3] = tested on: H295R cells; test: Caspase 3/7 activity (Apo-ONE); format: cell-based; settings: for caspase 3/7 activity, compound alone: serum-containing medium
Protocol: The samples were incubated for 18 h at room temperature in the dark. The fluorescence was measured using a SpectraMax M5 microplate reader with a 0.5 s acquisition time.

[4] = tested on: H295R cells; test: Cholesterol crystallization and extracellular cholesterol associated with cells; format: cell-based; settings: compound in combination with ATR-101
Protocol: To quantify cholesterol crystallization, experiments were conducted that measured the total extracellular cholesterol that was associated with the cells. After culturing cells with the indicated compounds, the culture medium was removed. Medium lacking cholesterol was added to the cells, and the extracellular cholesterol that was released into the wash medium was collected after 30 seconds. To establish if the cholesterol that was released from the cells was exported by ABCA1, the wash step was performed in parallel using media with and without 50 μM glibenclamide, which inhibits ABCA1 activity. The total amount of cell-associated cholesterol that was released into the wash medium was measured using a fluorometric enzyme-linked assay (Cayman Chemical). Cholesterol esters were hydrolyzed using cholesterol esterase. Cholesterol was oxidized by cholesterol oxidase, producing hydrogen peroxide. The hydrogen peroxide was reacted with 10-acetyl-3,7-dihydroxyphenoxazine (ADHP) in the presence of horseradish peroxidase to produce resorufin. Resorufin fluorescence was measured using 555 nm exitation and 590 nm emission wavelengths in a SpectraMax M5 microplate reader (Molecular Devices).
The medium was removed and replaced with 50 μl serum-free medium supplemented with 5 μg/mL apo-AI (without or with 50 μM glyburide to detect ABCA1 transporter-dependent efflux) for either 30 sec or 1 h at 37 C in 5% CO2 atmosphere. After the indicated time, the supernatant, was transferred to a new 96-well plate and a fluorometric-base cholesterol detection assay cocktail was added.

[5] = tested on: H295R cells; test: Cell morphology by phase contrast microscopy; format: cell-based; settings: 30 h
Protocol: FIG. 4E: […] The cells were cultured with DMSO vehicle (upper images) or with 40 μM ATR-101 (lower images) alone (left images), or in combination with 1.5 mM MβCD (middle images), or in combination with 40 μM cholesterol (right images). Cell morphology was visualized by phase contrast microscopy using a 10× objective. The images are representative of 5 fields under each set of culture conditions. The scale bars denote 100 μm.

[6] = tested on: H295R cells; test: Resazurin reducing potential; format: cell-based; settings: 32 μM ATR-101 with 2 mM MβCD
Protocol: FIG. 4F: […] The cells were cultured with DMSO vehicle or 32 μM ATR-101 alone, or together with 2 mM MβCD. Resazurin fluorescence intensity was measured using a microplate reader at the indicated times at 37 C. The background signal of wells without resazurin was subtracted. […] DMSO control, *P<0.05).

[7] = tested on: H295R cells; test: Cellular ATP level (CellTiter-Glo); settings: for ATP level, compound alone: serum-containing medium;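 as to all read-outs here: ATP quantified by luminescence after lysing the cells in CellTiter-Glo reagent, with compound exposure at 37 °C under 5% CO2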
Protocol: The ATP levels of cells were measured by lysis in CellTiter-Glo reagent (Promega), and measurement of the luminescence.
After 48 h, 20-80 μl of medium was removed from each well and replaced with 20 μl of each compound diluted to 6× of the final concentration in the culture medium to produce a final volume of 120 μl. The cells were incubated at 37 C in 5% CO2 atmosphere for a time ranging from 15 min to 24 h. The medium was removed and immediately replaced with 50 μl of CellTiter-Glo luminescence cell viability assay reagent (Promega). The cells were lysed by agitation at room temperature for 20 min in the dark. The luminescence was measured using a SpectraMax M5 microplate reader (Molecular Devices) with a 0.5 s acquisition time. The luminescence (RLU) values for control cells ranged from 5000 to 20000 RLU in all experiments, and were scaled by a factor of 0.001 to plot all graphs.

[8] = target: T1, MDR1 (Homo sapiens, UniProt P08183); settings: cited from earlier work
T1 construct: measured the accumulation of doxorubicin in H295R cells; endogenous in cells; host or cells: H295R adrenocortical carcinoma cells

[9] = H295R cells, serum-free, 50 μM each glibenclamide, benzamil, zosuquidar, 10 μM PD129337, 4 mM MβCD
[10] = H295R cells cultured with the compound together with ATR-101, 4 h
[11] = H295R cells cultured with the compound together with ATR-101, 24 h

Cc1ccc2oc(CN(Cc3ccccc3)C(=O)Nc3c(F)cc(F)cc3F)c(-c3ccc(Cl)cc3)c2c1 [FR145237]
adrenalytic effect in LDL deficient animals [1]: resistant

methyl-β-cyclodextrin [MβCD]
effect on cholesterol accumulation caused by ATR-101 ([2]; H295R cells cultured with the compound together with ATR-101, 4 h or 24 h): prevented cholesterol accumulation; also recorded: blocked the effects of ATR-101 on cholesterol accumulation; also recorded: did not have a higher level of filipin III binding to the plasma membrane
cholesterol level (filipin III binding), compound alone ([2]; H295R cells, serum-free medium containing apoA-I, 4 h): reduced the basal level of cholesterol
effect on cholesterol accumulation caused by ATR-101 ([2]; H295R cells, serum-free medium, 100 μM ATR-101 with 4 mM MβCD, 4 h): suppressed the cholesterol accumulation
cholesterol level with combinations of ABC transporter inhibitors [2, 9]: reduced the cholesterol level
effect on caspase 3/7 activation by ATR-101 [3, 10]: prevented ATP depletion and caspase activation; also recorded: suppressed
effect on caspase 3/7 activation by ATR-101 [3, 11]: prevented ATP depletion and caspase activation
caspase 3/7 activity, compound alone ([3]; H295R cells, 4 h): little effect
caspase 3/7 activity, compound alone ([3]; H295R cells, 24 h): little effect
effect on caspase activation by ATR-101 ([3]; H295R cells, serum-free medium, 100 μM ATR-101 with 4 mM MβCD): suppressed ATP depletion and caspase activation
caspase 3/7 activity with combinations of ABC transporter inhibitors [3, 9]: suppressed
effect on cholesterol crystallization in cells cultured with ATR-101 [4]: did not produce crystals; also recorded: blocked
effect on the changes in cell morphology caused by ATR-101 ([5]; 40 μM ATR-101 with 1.5 mM MβCD or 40 μM cholesterol): remained flat and adherent for at least 30 h; also recorded: prevented
cell morphology, compound alone ([5]; phase contrast): little effect
effect on the increase in resazurin fluorescence caused by ATR-101 [6]: not inhibited
effect on ATP depletion by ATR-101 [7, 10]: prevented ATP depletion; also recorded: suppressed the depletion of ATP
effect on ATP depletion by ATR-101 [7, 11]: prevented ATP depletion
effect on ATP depletion by ATR-101 in combination with ABC transporter inhibitors, substrates or U18666A ([7]; H295R cells, 2 mM MβCD): suppressed ATP depletion
ATP level, compound alone ([7]; H295R cells, 4 h): little effect
ATP level, compound alone ([7]; H295R cells, 24 h): little effect
effect on ATP depletion by ATR-101 ([7]; H295R cells, serum-free medium containing apoA-I, together with ATR-101): suppressed ATP depletion

O[C@@H](COc1cccc2ncccc12)CN1CCN([C@@H]2c3ccccc3[C@@H]3[C@H](c4ccccc42)C3(F)F)CC1 [zosuquidar]
MDR1 inhibition [8]: selectively inhibits MDR1
